# Results published in PMC11237694, “Novel pentafluorosulfanyl-containing triclocarban analogs selectively kill Gram-positive bacteria” (Microbiology Spectrum, 2024).
# Columns and labels:
# [1] = system: P. mirabilis ATCC 35659; experiment: Planktonic susceptibility (MIC/MBC), 96-well broth microdilution; format: cell-based; details: Proteus mirabilis; for MBC: ATCC35659; for MIC: ATCC35659, planktonic, overnight 37°C in MHB
# Method: (§1) All bacterial strains subjected to testing had been stored at −70°C prior to the experiment. The experiment commenced by streaking small amounts of the frozen bacterial samples onto Muller-Hinton agar (MHA) culture medium (BD Bacto, Oxoid, Basingstoke, UK Cat# X296B) and allowing for overnight incubation. Bacteria were re-cultured on MHA plates as required to confirm colony morphology and lack of contamination. Strains tested were P. aeruginosa ATCC 27853, E. coli ATCC 25922, Staphylococcus aureus ATCC 25923, MRSA ATCC 33591, S. epidermidis ATCC 12228, Klebsiella pneumoniae ATCC, P. mirabilis ATCC 35659, and 10 clinical isolates of MRSA from Foothills Hospital, Calgary, Canada. To prepare for susceptibility testing, a protocol modified from Lemire et al was used ([28]). MHB was swab-inoculated from MHA colonies and shake-incubated until turbid. Dilution of the broth with 0.9% saline was performed as necessary to match a 1.0 McFarland standard.
# (§2) MIC and MBC assessments were conducted on all bacterial strains using 96-well microtiter plates. To prepare the wells for bacteria, serial dilutions of the antibacterial agents were carried out along the rows of two microtiter plates. The antibacterials were 2-fold diluted with Mueller-Hinton broth (MHB) in each column, reaching a volume of 75 µL. The 1.0 McFarland standard was diluted 15-fold in MHB, and 75 µL of inoculum was added to the wells treated with antibacterials, resulting in a total volume of 150 µL. The microtiter plates were covered and then shake-incubated overnight at 150 rpm and 37°C. MIC was determined based on visible bacterial growth. In cases of antibacterial opacity or ambiguous results, streaking of well cultures on MHA, overnight incubation, and subsequent comparison with controls were performed. MBC was determined by transferring 3 µL of culture from all MIC microtiter plate wells to 147 µL of Mueller-Hinton broth in fresh plates. These plates were shake-incubated overnight at 150 rpm and 37°C, and bacterial growth was visually inspected.
# [2] = system: Klebsiella pneumoniae ATCC; experiment: as above; format: cell-based; details: K. pneumonia; for MIC: planktonic, overnight 37°C in MHB
# Method: as §1, §2
# [3] = system: MRSA ATCC 33591; experiment: as above; format: cell-based, methicillin-resistant S. aureus; details: Staphylococcus aureus, MRSA reference strain; for MIC: planktonic, overnight 37°C in MHB
# Method: as §1
# as §2, with “In cases of antibacterial opacity or ambiguous results, streaking of well cultures on MHA, overnight incubation, and subsequent comparison with controls were performed.” left out
# [4] = system: Staphylococcus aureus ATCC 25923; experiment: as above; format: cell-based; details: Staphylococcus aureus, ATCC25923, S. aureus; for MIC: planktonic, overnight 37°C in MHB
# Method: as §1, §2
# [5] = system: S. epidermidis ATCC 12228; experiment: as above; format: cell-based, Staphylococcus epidermidis; details: Staphylococcus epidermidis; for MBC: ATCC12228; for MIC: ATCC12228, planktonic, overnight 37°C in MHB
# Method: as §1, §2
# [6] = system: 10 clinical isolates of MRSA from Foothills Hospital, Calgary; experiment: Planktonic susceptibility (MIC/MBC) of MRSA clinical isolates; format: cell-based, methicillin-resistant S. aureus; details: Staphylococcus aureus
# Method: as §1
# as §2, with “In cases of antibacterial opacity or ambiguous results, streaking of well cultures on MHA, overnight incubation, and subsequent comparison with controls were performed.” left out
compound,measurement,setting,value
O=C(Nc1ccc(Cl)c(C(F)(F)F)c1)Nc1ccc2nnsc2c1 [A],MBC,[1],> 5000 µM
same,MIC,[1],> 5000 µM
same,MBC,[2],> 5000 µM
same,MIC,[2],> 5000 µM
"O=C(Nc1ccc2nnsc2c1)Nc1cccc(S(F)(F)(F)(F)F)c1Cl [EBP-24, 3-(1,2,3-benzothiadiazol-6-yl)-1-(2-chloro-3-pentafluoro-λ^6-sulfanyl)urea]",MIC,[3],150 µM
same,MBC,[1],> 5000 µM
same,MIC,[1],> 5000 µM
same,MBC,[4],78000 µM
same,MIC,[4],76 µM
same,MBC,[2],> 5000 µM
same,MIC,[2],> 5000 µM
"O=C(Nc1ccc(S(F)(F)(F)(F)F)cc1)Nc1ccc2nnsc2c1 [EPB-21, 3-(1,2,3-benzothiadiazol-6-yl)-1-(4-pentafluoro-λ^6-sulfanyl)urea]",MBC,[1],> 5000 µM
same,MIC,[1],> 5000 µM
same,MBC,[2],> 5000 µM
same,MIC,[2],> 5000 µM
"O=C(Nc1cc(S(F)(F)(F)(F)F)ccc1Cl)Nc1cc(S(F)(F)(F)(F)F)ccc1Cl [EBP-36, 1,3-bis(2-chloro-5-pentafluoro-λ^6-sulfanyl)urea]",MBC,[3],9800 µM
same,MIC,[3],610 µM
same,MBC,[1],> 5000 µM
same,MIC,[1],> 5000 µM
same,MBC,[4],78000 µM
same,MIC,[4],76 µM
same,MBC,[2],> 5000 µM
same,MIC,[2],> 5000 µM
"O=C(Nc1cccc(S(F)(F)(F)(F)F)c1)Nc1ccc2nnsc2c1 [EPB-22, 3-(1,2,3-benzothiadiazol-6-yl)-1-(3-pentafluoro-λ^6-sulfanyl)urea]",MBC,[3],4900 µM
same,MIC,[3],610 µM
same,MBC,[1],> 5000 µM
same,MIC,[1],> 5000 µM
same,MBC,[4],20000 µM
same,MIC,[4],610 µM
same,MBC,[2],> 5000 µM
same,MIC,[2],> 5000 µM
"O=C(Nc1ccc(S(F)(F)(F)(F)F)cc1)Nc1ccc(S(F)(F)(F)(F)F)cc1 [EBP-33, 1,3-bis(4-pentafluoro-λ^6-sulfanyl)urea]",MBC,[3],2400 µM
same,MIC,[3],4.8 µM
same,MBC,[1],> 5000 µM
same,MIC,[1],> 5000 µM
same,MBC,[4],20000 µM
same,MIC,[4],19 µM
same,MBC,[2],> 5000 µM
same,MIC,[2],> 5000 µM
"O=C(Nc1ccc2nnsc2c1)Nc1cc(S(F)(F)(F)(F)F)ccc1Cl [EPB-23, 3-(1,2,3-benzothiadiazol-6-yl)-1-(2-chloro-5-pentafluoro-λ^6-sulfanyl)urea]",MBC,[3],39000 µM
same,MIC,[3],4900 µM
same,MBC,[1],> 5000 µM
same,MIC,[1],> 5000 µM
same,MBC,[4],20000 µM
same,MIC,[4],2400 µM
same,MBC,[2],> 5000 µM
same,MIC,[2],> 5000 µM
"O=C(Nc1ccc(Cl)c(C(F)(F)F)c1)Nc1ccc(Cl)c(C(F)(F)F)c1 [EBP-34, 1,3-di(4-chloro-3-(trifluoromethyl)phenyl)urea]",MBC,[5],10 µM
same,MIC,[5],0.2 µM
same,MBC,[3],61 µM
same,MIC,[3],1.9 µM
same,MBC,[1],625 µM
same,MIC,[1],625 µM
same,MBC,[4],10 µM
same,MIC,[4],3.8 µM
same,MBC,[2],> 5000 µM
same,MIC,[2],> 5000 µM
same,MBC,[6]; MRSA #1 clinical isolate,< 2 µM
same,MIC,[6]; MRSA #1 clinical isolate,600 µM
same,MBC,[6]; MRSA #2 clinical isolate,< 2 µM
same,MIC,[6]; MRSA #2 clinical isolate,< 2 µM
same,MBC,[6]; MRSA #3 clinical isolate,80 µM
same,MIC,[6]; MRSA #3 clinical isolate,80 µM
same,MBC,[6]; MRSA #4 clinical isolate,< 2 µM
same,MIC,[6]; MRSA #4 clinical isolate,< 2 µM
same,MBC,[6]; MRSA #5 clinical isolate,10 µM
same,MIC,[6]; MRSA #5 clinical isolate,10 µM
same,MBC,[6]; MRSA #6 clinical isolate,10 µM
same,MIC,[6]; MRSA #6 clinical isolate,10 µM
same,MBC,[6]; MRSA #7 clinical isolate,10 µM
same,MIC,[6]; MRSA #7 clinical isolate,< 2 µM
same,MBC,[6]; MRSA #8 clinical isolate,5 µM
same,MIC,[6]; MRSA #8 clinical isolate,5 µM
same,MBC,[6]; MRSA #9 clinical isolate,< 2 µM
same,MIC,[6]; MRSA #9 clinical isolate,< 2 µM
same,MBC,[6]; MRSA #10 clinical isolate,10 µM
same,MIC,[6]; MRSA #10 clinical isolate,< 2 µM
O=C(Nc1ccc(Cl)c(Cl)c1)Nc1ccc2nnsc2c1 [B],MIC,[3],4900 µM
same,MBC,[1],> 5000 µM
same,MIC,[1],> 5000 µM
same,MIC,[4],9800 µM
same,MBC,[2],> 5000 µM
same,MIC,[2],> 5000 µM
"O=C(Nc1ccc(Cl)cc1)Nc1cccc(S(F)(F)(F)(F)F)c1Cl [EBP-58, 1-(2-Chloro-3-(pentafluoro-λ^6-sulfanyl)phenyl)-3-(4-chlorophenyl)urea]",MIC,[3],20000 µM
same,MBC,[1],> 5000 µM
same,MIC,[1],> 5000 µM
same,MBC,[2],> 5000 µM
same,MIC,[2],> 5000 µM
"O=C(Nc1ccc(Cl)c(C(F)(F)F)c1)Nc1cc(S(F)(F)(F)(F)F)ccc1Cl [EBP-37, 3-(4-chloro-3-(trifluoromethyl)phenyl)-1-(2-chloro-5-pentafluoro-λ^6-sulfanyl)urea]",MBC,[5],40 µM
same,MIC,[5],8 µM
same,MBC,[3],40 µM
same,MIC,[3],8 µM
same,MBC,[1],625 µM
same,MIC,[1],625 µM
same,MBC,[4],4900 µM
same,MIC,[4],1.2 µM
same,MBC,[2],> 5000 µM
same,MIC,[2],> 5000 µM
same,MBC,[6]; MRSA #1 clinical isolate,1200 µM
same,MIC,[6]; MRSA #1 clinical isolate,10 µM
same,MBC,[6]; MRSA #2 clinical isolate,10 µM
same,MIC,[6]; MRSA #2 clinical isolate,< 2 µM
same,MBC,[6]; MRSA #3 clinical isolate,600 µM
same,MIC,[6]; MRSA #3 clinical isolate,80 µM
same,MBC,[6]; MRSA #4 clinical isolate,10 µM
same,MIC,[6]; MRSA #4 clinical isolate,< 2 µM
same,MBC,[6]; MRSA #5 clinical isolate,10 µM
same,MIC,[6]; MRSA #5 clinical isolate,10 µM
same,MBC,[6]; MRSA #6 clinical isolate,< 2 µM
same,MIC,[6]; MRSA #6 clinical isolate,< 2 µM
same,MBC,[6]; MRSA #7 clinical isolate,40 µM
same,MIC,[6]; MRSA #7 clinical isolate,10 µM
same,MBC,[6]; MRSA #8 clinical isolate,10 µM
same,MIC,[6]; MRSA #8 clinical isolate,< 2 µM
same,MBC,[6]; MRSA #9 clinical isolate,10 µM
same,MIC,[6]; MRSA #9 clinical isolate,5 µM
same,MBC,[6]; MRSA #10 clinical isolate,10 µM
same,MIC,[6]; MRSA #10 clinical isolate,< 2 µM
"O=C(Nc1cccc(S(F)(F)(F)(F)F)c1)Nc1cccc(S(F)(F)(F)(F)F)c1 [EBP-53, 1,3-bis(3-(Pentafluoro-λ^6-sulfanyl)phenyl) urea]",MIC,[3],1200 µM
same,MBC,[1],> 5000 µM
same,MIC,[1],> 5000 µM
same,MIC,[4],1200 µM
same,MBC,[2],> 5000 µM
same,MIC,[2],> 5000 µM
"O=C(Nc1ccc(Cl)cc1)Nc1ccc(Cl)c(S(F)(F)(F)(F)F)c1 [EBP-41, 1-(4-chloro-3-(pentafluoro-λ^6-sulfanyl)phenyl)-3-(4-chlorophenyl)urea]",MBC,[3],1200 µM
same,MIC,[3],9.5 µM
same,MBC,[1],> 5000 µM
same,MIC,[1],> 5000 µM
same,MBC,[4],1200 µM
same,MIC,[4],38 µM
same,MBC,[2],> 5000 µM
same,MIC,[2],> 5000 µM
"O=C(Nc1ccc(Cl)c(S(F)(F)(F)(F)F)c1)Nc1ccc2nnsc2c1 [EBP-25, 3-(1,2,3-benzothiadiazol-6-yl)-1-(4-chloro-3-pentafluoro-λ^6-sulfanyl)urea]",MBC,[1],> 5000 µM
same,MIC,[1],> 5000 µM
same,MBC,[4],78000 µM
same,MIC,[4],9800 µM
same,MBC,[2],> 5000 µM
same,MIC,[2],> 5000 µM
"O=C(Nc1ccc(Cl)c(S(F)(F)(F)(F)F)c1)Nc1ccc(Cl)c(S(F)(F)(F)(F)F)c1 [EBP-56, 1,3-bis(4-Chloro-3-(pentafluoro-λ^6-sulfanyl)phenyl) urea]",MBC,[3],610 µM
same,MIC,[3],300 µM
same,MBC,[1],> 5000 µM
same,MIC,[1],> 5000 µM
same,MBC,[4],78000 µM
same,MIC,[4],4900 µM
same,MBC,[2],> 5000 µM
same,MIC,[2],> 5000 µM
"O=C(Nc1ccc(S(F)(F)(F)(F)F)cc1)Nc1cccc(S(F)(F)(F)(F)F)c1 [EBP-55, 1-(3-(pentafluoro-λ^6-sulfanyl)phenyl)-3-(4-(pentafluoro-λ^6-sulfanyl)phenyl)urea]",MBC,[3],150 µM
same,MIC,[3],4.8 µM
same,MBC,[1],> 5000 µM
same,MIC,[1],> 5000 µM
same,MBC,[4],78000 µM
same,MIC,[4],19 µM
same,MBC,[2],> 5000 µM
same,MIC,[2],> 5000 µM
